Assay results from US5079257A, “Indoloquinone compounds” (priority 1986, dated 1992).
Converted amounts (≈) assume the structure as drawn. Read-outs that look alike come from different tables or passages of the source.

Legend:
MCF7 breast cancer cells = assay: In vitro panel of human tumour lines (TNO): MCF-7; format: cell-based; details: about 72 hours; note: key: -: no inhibition of cell growth; +: total cell-kill
Experimental: (§1) Compounds E.O. 1, E.O. 2, E.O. 4, E.O. 4A, E.O. 8, E.O. 9, […], E.O. 33, and E.O. 35 were tested for their activity against five human tumour cell lines at the Radiobiological Institute TNO Rijswijk.
(§2) The new in vitro prescreen uses human tumour clones; it was set up by Dr. P. Lelieveld at TNO Rijswijk and comprises testing compounds in a bioliquid assay for their cytostatic activity against the following five human tumour lines:
(§3) After a continuous exposure to the drugs to be tested and to Adriamycin in `24 well tissue culture clusters, type 3524 (Costar)`, the remaining cells are fixed and stained. Using increasing drug concentrations the inhibiting concentration can be estimated qualitatively.
(§4) Cells: the human tumour cells are maintained in Dulbecco's medium supplemented with 10 percent foetal calf serum.
(§5) M and W cell suspensions: 10^5 cells/ml.
(§6) The cells were grafted into 16 mm wells for 48 hours (0.5 ml cell suspension per well was used).
(§7) Drugs: the compound to be tested was dissolved in appropriate concentrations in a mixture of Hepes-buffered Hanks' balanced salt solution and ethanol. The drug solutions (0.05 ml) were added to the different wells. The final ethanol concentration in each well was less than one percent.
(§8) The cells were continuously incubated with the compound under test at 37° in an atmosphere of 10 percent CO2 in humidified air for about 72 hours.
(§9) Determination of the inhibiting dose: the cells were fixed and stained with a solution of crystal violet in methanol/formaldehyde.

[1] = test system: T 24 cells; bladder carcinoma; assay: In vitro panel of human tumour lines (TNO): T 24; format: cell-based; details: about 72 hours; note: key: -: no inhibition of cell growth; +: total cell-kill
Experimental: as §1, §2, §3, §4
(§10) A, T and Z cell suspensions: 5·10^4 cells/ml
as §6, §7, §8, §9

[2] = test system: A 204 cells; rhabdomyosarcoma; assay: In vitro panel of human tumour lines (TNO): A 204; format: cell-based; details: about 72 hours; note: key: -: no inhibition of cell growth; +: total cell-kill
Experimental: as §1, §2, §3, §4, §10, §6, §7, §8, §9

IgR37 cells melanoma = assay: In vitro panel of human tumour lines (TNO): IgR-37; format: cell-based; details: about 72 hours; note: key: -: no inhibition of cell growth; +: total cell-kill
Experimental: as §1, §2, §3, §4, §10, §6, §7, §8, §9

WiDr cells; colon tumour = assay: In vitro panel of human tumour lines (TNO): WiDr; format: cell-based; details: about 72 hours; note: key: -: no inhibition of cell growth; +: total cell-kill
Experimental: as §1, §2, §3, §4, §5, §6, §7, §8, §9

[3] = Half-wave reduction potentials / polarography (University of Utrecht); format: physicochemical; details: for E1/2, halve wave reduction potential: Table IA, only the first (quinone) reduction potential
Source text: *The halve wave reduction potentials (E1/2) have been determined at the
Pharmaceutical Laboratory of University of Utrecht. Only the first
(quinone) reduction potential has been given.
Additional evidence for the occurrence of a bioreductive activation mechanism during the cytotoxic action of indoloquinones (II) was obtained via electrochemical studies, which have been carried out at the Pharmaceutical Laboratory of the University of Utrecht. […]

L1210 cells = assay: L1210 activity (bioliquid assay), cytotoxicity; format: cell-based; details: for IC50: Mus musculus, read-out: ID-50 L1210; for ID-50 L1210: Table VI, 2880 min
Source text: The indoloquinones II (formula II) have been tested in respect of their cytotoxic activity against L1210 cells and R-1 cells (Rhabdomyosarcoma Cells) in a bioliquid assay at the department of oncology of the Free University of Amsterdam (Table I). In addition to this seven compounds (E.O. 1, E.O. 2, E.O. 4, E.O. 7, E.O. 9, E.O. 16 and E.O. 17) have been tested on L1210 activity in a clonogenic assay at TNO, Rijswijk. Further, the lowest active doses of the compounds E.O. 1, E.O. 2, E.O. 4 and E.O. 9 have been determined at TNO Rijswijk, according to the method described by Lamberts et al. [Oncology, 40, 301 (1983)]. (Table II). Eight indoloquinones (E.O. 1, E.O. 2, E.O. 4, E.O. 4A, E.O. 8, E.O. 9, E.O. 33 and E.O. 35) have been tested in a panel of five human tumour lines (TNO Rijswijk; Table III). From the latter group three indoloquinones (E.O. 1, E.O. 4 and E.O. 9) have been selected for a cytotoxicity study, involving five slowly growing human tumour lines (University of Freiburg; Table IV).
For this purpose, L1210 cells were grown, as suspension, in Falcon multi-wells (growth area: 9.6 cm^2) using RPMI supplemented with 15% FCS and 2-mercapto-ethanol (60 μmol) as medium. In this medium, the cells were continuously incubated with the compound to be tested at 37° C. in an atmosphere of 5% CO2 in humidified air for 48 hours. Thereupon they were counted on a Sysmex microcell counter (CC110).
(§11) The in vitro L1210 and R-1 activities of the indoloquinones (formula III), were also determined in the bioliquid assays as described above.

[4] = test system: R-1 cells (Rhabdomyosarcoma Cells); assay: R-1 activity (bioliquid assay), cytotoxicity; format: cell-based; details: Rhabdomyosarcoma cell, read-out: ID-50 R-1
Source text: The indoloquinones II (formula II) have been tested in respect of their cytotoxic activity against L1210 cells and R-1 cells (Rhabdomyosarcoma Cells) in a bioliquid assay at the department of oncology of the Free University of Amsterdam (Table I). […] (Table II). Eight indoloquinones (E.O. 1, E.O. 2, E.O. 4, E.O. 4A, E.O. 8, E.O. 9, E.O. 33 and E.O. 35) have been tested in a panel of five human tumour lines (TNO Rijswijk; Table III).
For the determination of the R-1 activity, Rhabdomyosarcoma cells were brought into Falcon multiwells (growth area: 9.6 cm^2) (~10^6 cells per dish) containing 3 ml of Dulbecco's medium supplemented with 10% Foeto Calf Serum (FCS). […] Thereupon the drug solution was removed and the cells were covered with fresh medium. After 48 hours the cells were trypsinized and counted on a Sysmex microcell counter (CC110).
as §11

[5] = L1210, Table I, bioliquid assay, 48 hours
[6] = L1210, 48 h, Table IA, para-indoloquinone diesters
[7] = Table IA, para-indoloquinone diesters

SMILES	half-wave potential E1.2, wave I ([3]; pH = 8 vs Ag/AgCl) [mV]	IC50 (L1210 cells; [5]) [µg/mL]	IC50 ([4]; Table I, bioliquid assay) [µg/mL]	IC50 ([4]; Table VI) [µg/mL]	E1/2, halve wave reduction potential [3] [mV]	IC50 (L1210 cells; [6]) [µg/mL]	IC50 [4, 7] [µg/mL]	other results
N.N.[Cl][Pt][Cl] [Cisplatin, reference compound]								in vitro activity score, MCF-7 (MCF7 breast cancer cells; 0.01 μg/ml): -; in vitro activity score, MCF-7 (MCF7 breast cancer cells; 0.1 μg/ml): -; in vitro activity score, MCF-7 (MCF7 breast cancer cells; 1.0 μg/ml): -; in vitro activity score, T 24 ([1]; 0.01 μg/ml): -; in vitro activity score, T 24 ([1]; 0.1 μg/ml): -; in vitro activity score, T 24 ([1]; 10 μg/ml): +; in vitro activity score, A 204 ([2]; 0.01 μg/ml): -; in vitro activity score, A 204 ([2]; 0.1 μg/ml): -; in vitro activity score, A 204 ([2]; 10 μg/ml): +; in vitro activity score, IgR-37 (IgR37 cells melanoma; 0.01 μg/ml): -; in vitro activity score, IgR-37 (IgR37 cells melanoma; 0.1 μg/ml): -; in vitro activity score, IgR-37 (IgR37 cells melanoma; 10 μg/ml): +; in vitro activity score, WiDr (WiDr cells; colon tumour; 0.01 μg/ml): -; in vitro activity score, WiDr (WiDr cells; colon tumour; 0.1 μg/ml): -; in vitro activity score, WiDr (WiDr cells; colon tumour; 1.0 μg/ml): -; in vitro activity score, WiDr (WiDr cells; colon tumour; 10 μg/ml): +
CC(=O)OC/C=C/c1c(COC(C)=O)c2c(n1C)C(=O)C=C(NCC(O)CO)C2=O (stereo not drawn) [E.O. 6, 3-Acetoxymethyl-5-(2,3-dihydroxypropyl-1-amino)-1-methyl-2-[1H-indole-4,7-dione]prop-β-en-α-yl acetate]	-515	> 10	> 10	> 10				direct current polarogram ([3]; DC-polarography): two or more reduction waves; half-wave potential E1.2, wave III ([3]; pH = 8 vs Ag/AgCl): -600 mV; half-wave potential E1.2, wave IV ([3]; pH = 8 vs Ag/AgCl): -985 mV; ID-50 L1210 (L1210 cells): > 10 µg/mL
Cn1c(/C=C/CO)c(CO)c2c1C(=O)C=C(N1CCC(O)CC1)C2=O [E.O. 11, 3-Hydroxymethyl-5-(4-hydroxypiperidino)-1-methyl-2-[1H-indole-4,7-dione]prop-β-en-α-ol]	-430	> 10	> 10	> 10				ID-50 L1210 (L1210 cells): > 10 µg/mL
Cn1c(/C=C/CO)c(CO)c2c1C(=O)C=C(N1CCOCC1)C2=O [E.O. 12, 3-Hydroxymethyl-1-methyl-5-morpholino-2-[1H-indole-4,7-dione]prop-β-en-α-ol]	-420	3.8 (≈ 11.4 µM)	> 10	> 10				
COC(=O)/C=C/c1c(C(=O)OC)c2c(n1C)C(=O)C=C(OC)C2=O [E.O. 14, Methyl 5-methoxy-3-methoxycarbonyl-1-methyl-2-[1H-indole-4,7-dione]acrylate]					-243	0.8 (≈ 2.4 µM)	> 10	
COC(=O)/C=C/c1c(C(=O)OC)c2c(n1C)C(=O)C=C(NCC(O)CO)C2=O (stereo not drawn) [E.O. 23, Methyl 5-(2,3-dihydroxypropyl-1-amino)-3-methoxycarbonyl-1-methyl-2-[1H-indole-4,7-dione]acrylate]					-343	> 10	> 10	
COC(=O)/C=C/c1c(C(=O)OC)c2c(n1C)C(=O)C=C(O)C2=O [E.O. 24, Methyl 5-hydroxy-3-methoxycarbonyl-1-methyl-2-[1H-indole-4,7-dione]acrylate]					-299	> 10	> 10	
